Source: patent publication US8828992B2, “Substituted azole derivatives, pharmaceutical composition containing the derivatives, and method for treating Parkinson's disease using the same” (priority 2009, dated 2014)
Where two headings read alike, the source gives them in different places.

Experiments:
[1] = target: T1, Monoamineoxidase B type human-derived enzyme (Homo sapiens, UniProt P27338); experiment: Inhibitory effects on the activity of MAO-B (Amplex Red fluorescence, benzylamine substrate); format: biochemical; conditions: read-out: Inhibitory effects (%) on the activity of MAO-B
T1 sequence (P27338 1-520): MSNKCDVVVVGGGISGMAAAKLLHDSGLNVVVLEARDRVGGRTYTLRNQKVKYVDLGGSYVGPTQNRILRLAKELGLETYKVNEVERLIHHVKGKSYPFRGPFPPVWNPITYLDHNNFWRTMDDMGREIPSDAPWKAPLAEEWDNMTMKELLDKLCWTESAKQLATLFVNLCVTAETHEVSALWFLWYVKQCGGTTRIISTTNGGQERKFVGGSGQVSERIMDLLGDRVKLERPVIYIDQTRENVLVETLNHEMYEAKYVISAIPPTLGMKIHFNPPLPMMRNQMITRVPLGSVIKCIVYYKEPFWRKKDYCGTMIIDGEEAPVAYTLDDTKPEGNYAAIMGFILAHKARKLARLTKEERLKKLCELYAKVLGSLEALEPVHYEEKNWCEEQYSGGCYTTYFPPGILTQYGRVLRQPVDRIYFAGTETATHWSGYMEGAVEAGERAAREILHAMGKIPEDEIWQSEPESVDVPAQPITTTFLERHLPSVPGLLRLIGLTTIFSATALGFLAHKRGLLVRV
Outline: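 Human MAO-B, diluted 1:200 in 0.05 M sodium phosphate pH 7.4, was pre-incubated with compound for 30 min. It was then mixed 1:1 with working buffer holding 400 μM Amplex Red, 2 U/ml HRP and 2 mM benzylamine (working-buffer levels). Fluorescence (Ex 563/Em 587 nm) was read over 30 min.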

MPTP-induced mouse model = experiment: Tail suspension test in MPTP-induced mouse model of Parkinson's disease; format: in vivo; conditions: Mus musculus, 168 h; administration concentration 10 (10 mg/kg), oral, 7 days after MPTP; % of control group (Sham); read-out: Mobility (%)
Method: (§1) A. MPTP (1-methyl-4-phenyl-1,2,3,6-tetrahydropyridine) and drug treatment MPTP (20 mg/kg, free base; Sigma, St. louis, Mo.) was administered to an 8 week old (20-25 g) male C57BL/6 test mouse intraperitoneally three times a day at the interval of 2 hours to construct a model (Breidert et al., 2002; Lichuan Yang, Shuei Sugama, Jason W. Chirichigno, Jason Gregorio, Stefan Lorenzl, Dong H. Shin, Susan E. Browne, Yoshinori Shimizu, Tong H. Joh, M. Flint Beal, l and David S. Alber. (2003) Minocycline Enhances MPTP Toxicity to Dopaminergic Neurons. J Neurosci Res. 74:278-285). In order to observe the protective effects of the compound as a candidate drug, the compound was dissolved in a solution containing 10% dimethylsulfoxide (DMSO), 10% Cremophor, and 40% polyethyleneglycol (PEG), […] treatment. Rasagiline as a control drug was also dissolved in the same solution, and the resulting solution was administered at the same doses in the same manner as above. A control group (Sham) in which MPTP was not administered was constructed by intraperitoneally administering saline solution to the group instead of MPTP in the same manner as above and orally administering the same solution 1 hour before and after PBS treatment.
A tail suspension test was performed in order to measure the induction degree of behavioral dysfunctions in accordance with administration of MPTP and a drug. At 7 days after administration of the drug, a round stainless steel rod (width: 1 cm) was affixed to a cage (width: 16 cm, height: 40 cm) 35 cm above from the surface shielded by black wooden structures in the left and right sides to perform experiments. The time for which the animal moved for a total period of 6 minutes was measured in seconds to evaluate the drug action.
Mobility refers to an expression of the measurement of the time for which the animal moved with its tail hung high as a percentage compared to the measurement of a control group.

[2] = system: dopamine (DA) in the striata of MPTP-treated mice; experiment: Levels of dopamine in the striata of MPTP-treated mice (HPLC); format: in vivo; conditions: Mus musculus, po, 168 h, 10 mpk, 7 days after MPTP, read-out: Levels of dopamine (DA) in the striata, compared to a control group %
Method: as §1
The changes of contents of dopamine and dopamine metabolites in the striatum in accordance with administrations of MPTP and the drug were measured by high performance liquid chromatography (HPLC). At 7 days after administration of the drug, the animal was sacrificed by cervical vertebra dislocation and the brain tissues were immediately isolated from the animal. 0.5 ml of iced solution for HPLC analysis (0.1 M perchloric acid and 0.1 mM EDTA) was added to a striatum obtained from the isolated brain tissues, and an ultrasonic grinder was used to prepare a tissue homogenate. The tissue homogenate was centrifuged at 12,000 rpm for 15 minutes, and its supernatant was filtered through nitrocellulose membrane filter (0.2 um, Millipore). For HPLC analysis, uBondapak™ C18 column (4.6×150 mm, particle size 10 μm: Shisheido, Japan) was used, the flow rate of the mobile phase (0.07 M monobasic sodium phosphate), 1 mM sodium octasulfonic acid, 0.1 uM EDTA, 5% acetonitrile, pH 3.2) was maintained at 0.7 ml/min, and the electrode potential of the electrochemical detector (ICA-5000, Japan) was set at 700 mV.

[3] = system: dopamine (DA) in the striatum of a MPTP-treated mouse; experiment: Combined administration with Levodopa group: dopamine in the striatum of MPTP-treated mouse (HPLC); format: in vivo; conditions: compound 1 mg/kg PO co-administered with Levodopa group (Levodopa 50 mg/kg + Benzerazide 25 mg/kg IP); for Concentration of dopamine compared to a control group %, 1 hr: 1 hr after Levodopa; for Concentration of dopamine compared to a control group %, 3 hr: 3 hr after Levodopa
Method: MPTP (20 mg/kg, free base; Sigma, St. louis, Mo.) was administered to an 8 week old (20-25 g) male C57BL/6 test mouse intraperitoneally at the interval of 2 hours to construct a model.
In order to observe the effects of combined administration of a compound of the present invention and Levodopa, the compound of the present invention was dissolved in a solution containing 0.02 ml of dimethylsulfoxide (DMSO), 0.02 ml of Cremophor, 0.08 ml of polyethyleneglycol (PEG), and 0.08 ml of physiological saline. The resulting solution was orally administered at doses of 1 mg/kg one week after the MPTP treatment, and a Levodopa group containing Levodopa at 50 mg/kg and Benzerazide at 25 mg/kg was intraperitoneally administered 1 hour later.
A single administration of the Levodopa group in the following Table 4 indicates values resulting from a MPTP (toxin) treatment followed by an administration of the Levodopa group compared to the treatment results of a Levodopa single administration group of Levodopa and Benzerazide.
At 1 hour and 3 hours after administration of Levodopa, the animals were sacrificed by cervical vertebra dislocation and the brain tissues were immediately isolated from the animals. 0.5 me of iced solution for HPLC analysis (0.1 M perchloric acid and 0.1 mM EDTA) was added to a striatum obtained from the isolated brain tissues, and an ultrasonic grinder was used to prepare a tissue homogenate. The tissue homogenate was centrifuged at 12,000 rpm for 15 minutes, and its supernatant was filtered through nitrocellulose membrane filter (0.2 um, Millipore). For HPLC analysis, uBondapak™ C18 column (4.6×150 mm, particle size 10 μm: Shisheido, Japan) was used, the flow rate of the mobile phase (0.07 M monobasic sodium phosphate, 1 mM sodium octasulfonic acid, 0.1 uM EDTA, 5% acetonitrile, pH 3.2) was maintained at 0.5 me/min, and the electrode potential of the electrochemical detector (CouloChem III, ESA, Japan) was set at 350 mV.

NC(=O)OCc1cc(-c2ccc(OCc3ccccc3)cc2)no1 [Example 1, carbamic acid 3-(4-benzyloxy-phenyl)-isoxazole-5-ylmethyl ester]
inhibition at 0.01 µM [1]: 96.6% | response vs control in vivo at 10 mg/kg (MPTP-induced mouse model): 113% | response vs control in vivo at 10 mg/kg [2]: 112% | Concentration of dopamine compared to a control group %, 1 hr [3]: 129.5% | Concentration of dopamine compared to a control group %, 3 hr [3]: 90.8%

NC(=O)OCc1cc(-c2ccc(OCc3ccccc3)c(Br)c2)no1 [Example 6, carbamic acid 3-(4-benzyloxy-3-bromo-phenyl)-isoxazol-5-ylmethyl ester]
inhibition at 0.01 µM ([1]; treatment concentration 10 nM): 90.7% | response vs control in vivo at 10 mg/kg (MPTP-induced mouse model): 82.9% | response vs control in vivo at 10 mg/kg [2]: 112% | Concentration of dopamine compared to a control group %, 1 hr [3]: 220.87% | Concentration of dopamine compared to a control group %, 3 hr [3]: 59.8%

NC(=O)OCc1cc(-c2ccc(OCc3cccc(F)c3)cc2)no1 [Example 12, carbamic acid 3-[4-(3-fluoro-benzyloxy)-phenyl]-isoxazol-5-ylmethyl ester]
inhibition at 0.01 µM ([1]; treatment concentration 10 nM): 94.1% | response vs control in vivo at 10 mg/kg (MPTP-induced mouse model): 85.3% | response vs control in vivo at 10 mg/kg [2]: 78.8%

NC(=O)OCc1cc(-c2ccc(OCc3ccc(C=NO)cc3)cc2)no1 [Example 37, carbamic acid 3-{4-[4-(hydroxyimino-methyl)-benzyloxy]-phenyl}-isoxazol-5-ylmethyl ester]
inhibition at 0.01 µM ([1]; treatment concentration 10 nM): 92.3% | response vs control in vivo at 10 mg/kg (MPTP-induced mouse model): 77.5% | response vs control in vivo at 10 mg/kg [2]: 79.2%

NC(=O)OCc1cc(-c2ccc(OCc3cccc(C=NO)c3)cc2)no1 [Example 38, carbamic acid 3-{4-[3-(hydroxyimino-methyl)-benzyloxy]-phenyl}-isoxazol-5-ylmethyl ester]
inhibition at 0.01 µM ([1]; treatment concentration 10 nM): 91.7% | response vs control in vivo at 10 mg/kg (MPTP-induced mouse model): 73% | response vs control in vivo at 10 mg/kg [2]: 52.9%

CCCCCCOc1ccc(-c2cc(COC(N)=O)on2)cc1 [Example 45, carbamic acid 3-(4-hexyloxy-phenyl)-isoxazol-5-ylmethyl ester]
inhibition at 0.01 µM [1]: 87.6% | response vs control in vivo at 10 mg/kg (MPTP-induced mouse model): 114% | response vs control in vivo at 10 mg/kg [2]: 41.1%

NC(=O)OCc1cc(-c2ccc(OCc3ccc(Cl)s3)cc2)no1 [Example 62, Carbamic acid 3-[4-(5-chloro-thiophen-2-ylmethoxy)-phenyl]-isoxazol-5-ylmethyl ester]
inhibition at 0.01 µM [1]: 98.6% | response vs control in vivo at 10 mg/kg (MPTP-induced mouse model): 97.3% | response vs control in vivo at 10 mg/kg [2]: 99.1% | Concentration of dopamine compared to a control group %, 1 hr [3]: 204.8% | Concentration of dopamine compared to a control group %, 3 hr [3]: 65.4%

NC(=O)OCc1cc(-c2ccc(OCc3ccccn3)cc2)no1 [Example 65, Carbamic acid 3-[4-(pyridin-2-ylmethoxy)-phenyl]-isoxazol-5-ylmethyl ester]
inhibition at 0.01 µM [1]: 89.9% | response vs control in vivo at 10 mg/kg (MPTP-induced mouse model): 94.1% | response vs control in vivo at 10 mg/kg [2]: 74.9%

NC(=O)OCc1cc(-c2ccc(OCc3ccncc3)cc2)no1 [Example 67, Carbamic acid 3-[4-(pyridin-4-ylmethoxy)-phenyl]-isoxazol-5-ylmethyl ester]
inhibition at 0.01 µM [1]: 94.2% | response vs control in vivo at 10 mg/kg (MPTP-induced mouse model): 88.9% | response vs control in vivo at 10 mg/kg [2]: 80.7%

NC(=O)OCc1cc(-c2ccc(OCc3c(Cl)cncc3Cl)cc2)no1 [Example 69, Carbamic acid 3-[4-(3,5-dichloro-pyridin-4-ylmethoxy)-phenyl]-isoxazol-5-ylmethyl ester]
inhibition at 0.01 µM ([1]; treatment concentration 10 nM): 83.6% | response vs control in vivo at 10 mg/kg (MPTP-induced mouse model): 97.4% | response vs control in vivo at 10 mg/kg [2]: 100% | Concentration of dopamine compared to a control group %, 1 hr [3]: 205.2% | Concentration of dopamine compared to a control group %, 3 hr [3]: 200.4%

NC(=O)OCc1cc(-c2ccc(OCn3nnc4ccccc43)cc2)no1 [Example 71, Carbamic acid 3-[4-(benzotriazol-1-ylmethoxy)-phenyl]-isoxazol-5-ylmethyl ester]
inhibition at 0.01 µM ([1]; treatment concentration 10 nM): 56% | response vs control in vivo at 10 mg/kg [2]: 41.1%

CNC(=O)OCc1cc(-c2ccc(OCc3ccccc3)cc2)no1 [Example 121, methyl-carbamic acid 3-(4-benzyloxy-phenyl)-isoxazol-5-ylmethyl ester]
inhibition at 0.01 µM ([1]; treatment concentration 10 nM): 82.8% | response vs control in vivo at 10 mg/kg (MPTP-induced mouse model): 91.2% | response vs control in vivo at 10 mg/kg [2]: 97.9% | Concentration of dopamine compared to a control group %, 1 hr [3]: 144.6% | Concentration of dopamine compared to a control group %, 3 hr [3]: 89.2%

Cc1cn(Cc2cc(-c3ccc(OCc4ccccc4)cc3)no2)cn1 [Example 141, 3-(4-benzyloxy-phenyl)-5-(4-methyl-imidazol-1-ylmethyl)-isoxazole]
inhibition at 0.01 µM ([1]; treatment concentration 10 nM): 92.2% | response vs control in vivo at 10 mg/kg (MPTP-induced mouse model): 94.6% | response vs control in vivo at 10 mg/kg [2]: 51.2%

Fc1cccc(F)c1COc1ccc(-c2cc(Cn3ccnc3)on2)cc1 [Example 143, 3-[4-(2,6-difluoro-benzyloxy)-phenyl]-5-imidazol-1-ylmethyl-isoxazole]
inhibition at 0.01 µM ([1]; treatment concentration 10 nM): 98.1% | response vs control in vivo at 10 mg/kg (MPTP-induced mouse model): 98.9% | response vs control in vivo at 10 mg/kg [2]: 46.1%
